The Kinase Knowledgebase extract (Sharma et al. 2016)
≈ marks a conversion by molar mass, not a printed value.

Columns and labels:
EGFR (human) [1] = target: EGFR (human) (UniProt P00533); conditions: for IC50: ht-29; for inhibition: ht-29, concentration not given here
EGFR (human) [2] = target: EGFR (human) (UniProt P00533); conditions: mda-mb-435
EGFR (human) [3] = target: EGFR (human) (UniProt P00533); conditions: sk-br-3
EGFR (human) [4] = target: EGFR (human) (UniProt P00533); conditions: a431
EGFR (human) [5] = target: EGFR (human) (UniProt P00533); conditions: sw 620

EGFR (human), sequence (P00533 whole entry, looked up): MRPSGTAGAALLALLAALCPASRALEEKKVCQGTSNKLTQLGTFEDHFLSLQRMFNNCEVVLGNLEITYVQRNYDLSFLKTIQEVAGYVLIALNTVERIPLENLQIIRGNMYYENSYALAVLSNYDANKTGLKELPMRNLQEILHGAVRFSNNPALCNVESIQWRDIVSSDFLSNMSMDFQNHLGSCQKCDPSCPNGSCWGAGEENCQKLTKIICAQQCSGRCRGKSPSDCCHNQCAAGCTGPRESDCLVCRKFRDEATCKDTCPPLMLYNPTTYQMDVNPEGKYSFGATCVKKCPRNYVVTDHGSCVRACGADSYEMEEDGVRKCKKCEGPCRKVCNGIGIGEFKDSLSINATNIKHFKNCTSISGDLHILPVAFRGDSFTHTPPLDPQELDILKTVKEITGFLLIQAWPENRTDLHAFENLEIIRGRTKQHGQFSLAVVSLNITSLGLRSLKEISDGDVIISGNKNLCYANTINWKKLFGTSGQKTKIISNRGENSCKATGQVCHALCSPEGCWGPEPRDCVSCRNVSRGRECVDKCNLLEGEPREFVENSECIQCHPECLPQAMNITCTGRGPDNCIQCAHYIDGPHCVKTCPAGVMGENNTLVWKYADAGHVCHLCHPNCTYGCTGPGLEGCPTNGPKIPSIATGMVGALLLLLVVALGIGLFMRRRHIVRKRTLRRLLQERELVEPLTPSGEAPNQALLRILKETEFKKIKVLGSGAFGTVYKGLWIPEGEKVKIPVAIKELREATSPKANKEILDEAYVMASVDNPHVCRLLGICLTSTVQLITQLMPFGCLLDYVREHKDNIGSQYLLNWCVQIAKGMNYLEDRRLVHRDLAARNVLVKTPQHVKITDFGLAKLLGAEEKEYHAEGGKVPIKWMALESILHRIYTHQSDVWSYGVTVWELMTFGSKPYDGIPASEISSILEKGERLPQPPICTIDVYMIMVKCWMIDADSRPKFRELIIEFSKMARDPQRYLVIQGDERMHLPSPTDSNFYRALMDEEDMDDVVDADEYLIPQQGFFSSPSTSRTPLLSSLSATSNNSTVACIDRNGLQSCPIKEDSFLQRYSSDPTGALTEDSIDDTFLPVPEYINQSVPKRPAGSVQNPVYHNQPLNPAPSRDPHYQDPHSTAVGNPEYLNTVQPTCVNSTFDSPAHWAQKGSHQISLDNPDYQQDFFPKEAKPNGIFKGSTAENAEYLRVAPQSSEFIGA

| SMILES | IC50 (EGFR (human) [1]) [µM] | IC50 (EGFR (human) [2]) [µg/mL] | IC50 (EGFR (human) [3]) [µg/mL] | IC50 (EGFR (human) [4]) [µg/mL] | IC50 (EGFR (human) [5]) [µg/mL] | inhibition (EGFR (human) [1]) [%] |
| --- | --- | --- | --- | --- | --- | --- |
| N#Cc1cnc2c(sc3ccccc32)c1Nc1cccc(Br)c1 |  | > 5 | > 5 | > 5 | > 5 |  |
| C=CC(=O)Nc1ccc2sc3c(Nc4cccc(Br)c4)c(C#N)cnc3c2c1 |  | 1.69 (≈ 3.76 µM) | 0.224 (≈ 0.499 µM) | 0.838 (≈ 1.86 µM) | 1 (≈ 2.23 µM) |  |
| N#Cc1cnc2c(sc3ccc([N+](=O)[O-])cc32)c1Nc1ccc(Cl)cc1Cl |  | 0.46 (≈ 1.11 µM) | 0.59 (≈ 1.42 µM) | 0.41 (≈ 0.987 µM) | 0.67 (≈ 1.61 µM) |  |
| N#Cc1cnc2c(oc3ccccc32)c1Nc1cccc(Br)c1 |  | > 5 | > 5 | > 5 | > 5 |  |
| C=CC(=O)Nc1cccc2c1sc1c(Nc3cccc(Br)c3)c(C#N)cnc12 |  | 3.9 (≈ 8.68 µM) | 1.09 (≈ 2.43 µM) | 1.11 (≈ 2.47 µM) | > 5 |  |
| N#Cc1cnc2cc3nc[nH]c3cc2c1Nc1cccc(Br)c1 |  | 3.48 (≈ 9.56 µM) | 0.6 (≈ 1.65 µM) | 0.58 (≈ 1.59 µM) | 3.72 (≈ 10.2 µM) |  |
| COc1cc(Nc2c(C#N)cnc3cc4nc[nH]c4cc23)cc(OC)c1OC |  |  |  |  |  | 0 |
| COc1cc(Nc2c(C#N)cnc3cc4nc[nH]c4cc23)c(Br)cc1Cl |  |  |  |  |  | 35 |
| COc1ccc(Cl)c(Nc2c(C#N)cnc3cc4nc[nH]c4cc23)c1 |  |  |  |  |  | 10 |
| N#Cc1cnc2c(sc3ccc(N)cc32)c1Nc1cccc(Br)c1 |  | > 5 | > 5 | > 5 | > 5 |  |
| N#Cc1cnc2cc3nc[nH]c3cc2c1Nc1ccc(Cl)cc1Br |  |  |  |  |  | 25 |

The next lines start with the values.

| IC50 (EGFR (human) [1]) [µM] | IC50 (EGFR (human) [2]) [µg/mL] | IC50 (EGFR (human) [3]) [µg/mL] | IC50 (EGFR (human) [4]) [µg/mL] | IC50 (EGFR (human) [5]) [µg/mL] | inhibition (EGFR (human) [1]) [%] | SMILES |
| --- | --- | --- | --- | --- | --- | --- |
| > 10 |  |  |  |  |  | CCOc1cc2cc3c(Nc4cc(OC)c(Cl)cc4C)c(C#N)cnc3cc2cc1OCCN1CCOCC1 |
| 9.95 |  |  |  |  |  | COc1cc(Nc2c(C#N)cnc3cc4cc(OCCN5CCOCC5)c(OC)cc4cc23)c(Cl)cc1C |
|  |  | 0.04 (≈ 0.0789 µM) | 0.76 (≈ 1.5 µM) | 0.36 (≈ 0.71 µM) |  | COc1cc2cc3ncc(C#N)c(Nc4ccc(F)c(Cl)c4)c3cc2cc1OCCN1CCOCC1 |
| > 10 |  |  |  |  |  | COc1cc(Nc2c(C#N)cnc3cc4cc(OCCN5CCOCC5)c(OC)cc4cc23)c(C)cc1Cl |
|  | 1.65 (≈ 4.74 µM) | 1.01 (≈ 2.9 µM) | 0.332 (≈ 0.955 µM) | 1.08 (≈ 3.11 µM) |  | N#Cc1cnc2cc3ccccc3cc2c1Nc1ccc(F)c(Cl)c1 |
|  | 0.85 (≈ 2.15 µM) | > 5 | 0.58 (≈ 1.46 µM) | 0.38 (≈ 0.959 µM) |  | N#Cc1cnc2cc3cc(O)c(O)cc3cc2c1Nc1ccc(Cl)cc1Cl |
|  | 33.5 (≈ 56.3 µM) | 3.5 (≈ 5.88 µM) | 4.7 (≈ 7.9 µM) | 11.6 (≈ 19.5 µM) |  | COc1cc2cc3c(Nc4ccc(OCc5ccccc5)c(Cl)c4)c(C#N)cnc3cc2cc1OCCN1CCOCC1 |
| 8.6 |  |  |  |  |  | COc1cc(Nc2c(C#N)cnc3cc4cc(OCCN5CCN(C)CC5)c(OC)cc4cc23)c(C)cc1Cl |
